Publication PMC7005452 (Heliyon, 2020)
Read-outs that look alike come from different tables or passages of the source.

Experiments:
[1] = WST-1 cytotoxicity / cell viability assay; format: cell-based, human; details: human, HEK293 cells, log-probit on percentage mortality, read-out: LC50
Experimental: (§1) Human embryonic kidney 293 (HEK293) and CACO2 cells were purchased from ATCC. Cells were cultured in DMEM (Corning, USA) supplemented with 10% FBS (Gibco, USA) and 1% penicillin/streptomycin (Gibco, USA). SH-SY5Y cells were gifted by Dr. Dong-Hyung Cho's laboratory in the Dept. of Life Science at Kyungpook National University and were grown in DMEM with high glucose (Gibco, USA). Cells were grown to 80–90% confluence in a 10 cm plate before splitting into a 96 well plate. […] After 48 h incubation, 10% (v/v) of water soluble tetrazolium salt (WST, DoGen Inc., South Korea) was added to each well, following the manufacturer's instruction. Orange color development for enzyme-substrate reaction was monitored, using spectrophotometry at 450 nm (Tecan Sunrise, Switzerland).
(§2) One-way ANOVA, followed by a post-hoc Tukey's HSD test, was used to determine differences in toxicity, and repellency percentages (P < 0.05) (SAS for Window release 6, SAS Institute). All percentage mortality data were corrected using Abbott's formula ([Abbott, 1987]). […] Adult repellency percentage was calculated using the formula PR (%) = [(C-T)/(C + T)] × 100 ([Liu et al., 2013]). All analyses were performed in SAS version 9.4. All the graphs were drawn with SigmaPlot 12.5 (Systat Software, Inc., San Jose, CA, USA).
(§3) As the safety of agricultural products and foods became a major concern and issue in the modern society, validating the effects of pesticides on human physiology and setting the safety limits of their use is important ([Fan and Jackson, 1989]; [Kim et al., 2017]). […] WST-1 is a substrate of mitochondrial dehydrogenases and is converted to a colored dye called formazan in viable cells. Because the intensity of dye is proportional to the amount of enzyme, WST-1 reagent cell proliferation assay is widely used to measure the cell viability ([Ngamwongsatit et al., 2008]).

HEK293 cells = test: WST-1 cytotoxicity / cell viability assay; format: cell-based, human
Experimental: as §1, §2, §3

[2] = WST-1 cytotoxicity / cell viability assay; format: cell-based, human; details: human, SH-SY5Y cells, log-probit on percentage mortality, read-out: LC50
Experimental: as §1, §2
(§4) It has also been used as a preservative for cosmetic products. In addition, it was reported that methylparaben is a chemical compound present in local anesthetic that can alter the function of the human nervous system ([Nathan and Sears, 1961]).

SH-SY5Y cells = test: WST-1 cytotoxicity / cell viability assay; format: cell-based, human
Experimental: as §1, §2, §4

CCNB1 (cyclin B1) = test: Real-time PCR, cyclin B1 mRNA expression in HEK293 cells; format: cell-based, human; details: HEK293, 48 h, MB 4.4 mM, EB 1.7 mM, VB 1.7 mM, ACTIN reference
Experimental: (§5) HEK293 and SH-SY5Y cells were grown to 60–70% confluence in 6 well plates and the media were exchanged with the ones including the chemicals, MB, EB, or VB in the given concentrations. After 48 h incubation, the cells were washed with cold PBS once and scraped. The cells were washed again with cold PBS twice before extracting total RNA molecules using Qiagen RNeasy kit. cDNAs were constructed from 600 ng of the collected RNAs using Reverse Transcription System (Promega, Japan). cDNA was analyzed through real-time quantifying PCR using SYBR Green Realtime PCR Master Mix (Toyobo, Japan) according to the manufacturer's instructions (CFX96 Touch Real-time PCR System, Bio-Rad).
(§6) Further, we prompted to assess whether the gene expression of cell cycle and stress regulators such as cyclins and HSP70 is affected by MB, EB, and VB. These chemicals were applied to the HEK293 or SH-SY5Y cells at the concentrations of 4.4 mM [0.06% MB, 0.05% (3.7 mM) for SH-SY5Y cells], 1.7 mM (0.025%, EB), and 1.7 mM (0.025%, VB), respectively, for 48 h before extracting the total RNAs from the cells. The concentrations were chosen based on the LC50 values, approximately a third of the values, that would not cause cell death but could influence the gene expression in the tested cells. mRNAs of HSP70, CCNB1 (cyclin B1), and CCND1 (cyclin D1) were quantified by real-time PCR with ACTIN as a reference gene. Cyclin B1 is a checkpoint regulator for S/G2 transition, whereas cyclin D1 is for G1 progression ([Baldin et al., 1993]; [Hwang et al., 1995]). […] The mRNA expression of HSP70, a stress-inducible gene ([Huang et al., 2001]), decreased in MB-, EB-, and VB-treated HEK293 cells, and VB-treated samples showing the least expression (Figure 4A). […] For SH-SY5Y cells, we also measured the mRNA expression of AChE, acetylcholinesterase gene ([Dvir et al., 2010]), because of the similar structure of these chemicals to methylparaben ([Nathan and Sears, 1961]) and of the fact that MB has been reported to have a repellent effect against some insect pests such as Bemisia tabaci (Gennadius) ([Mostafiz et al., 2018]).

HSP70 [3] = test: Real-time PCR, HSP70 mRNA expression in HEK293 cells; format: cell-based, human; details: HEK293, 48 h, MB 4.4 mM, EB 1.7 mM, VB 1.7 mM, ACTIN reference
Experimental: as §5, §6

[4] = test system: HSP70, CCNB1 (cyclin B1), and CCND1 (cyclin D1); test: Real-time PCR, HSP70, CCNB1 and CCND1 mRNA expression in SH-SY5Y cells; format: cell-based, human; details: 48 h, MB 3.7 mM, EB 1.7 mM, VB 1.7 mM
Experimental: as §5, §6

[5] = test system: AChE, acetylcholinesterase gene; test: Real-time PCR, AChE mRNA expression in SH-SY5Y cells; format: cell-based, human; details: 48 h, MB 3.7 mM, EB 1.7 mM, VB 1.7 mM
Experimental: as §5, §6

[6] = WST-1 cytotoxicity / cell viability assay; format: cell-based, human; details: human, CACO2 cells; CACO2, WST assay, log-probit on percentage mortality; read-out: LC50
Experimental: as §1, §2
(§7) Ingested residual pesticides from agricultural foods may stay in the colon for a longer time than any other organs.

CACO2 cells = test: WST-1 cytotoxicity / cell viability assay; format: cell-based, human; details: for reduction in CACO2 cells in the WST-1 assay: acetone-T20 solvent
Experimental: as §1, §2, §7

[7] = Crystal violet cell staining assay; format: cell-based; details: human, HEK293 cells, in agreement with WST-1, read-out: upper limit of MB concentration for HEK293 cell viability
Experimental: For the crystal violet experiment, cells were split into a 96 well and MB was applied to each well as described above and then HEK293 cells were grown for 1–2 days and CACO2 cells for 4–5 days. Crystal violet staining method published by M. [Feoktistova et al., (2016)] was used without modifications. The resultant plate was taken picture of. In addition, the stained cells were dissolved in methanol and the intensity of color was measured at 595 nm (Tecan Sunrise, Switzerland).

[8] = Visual observation of aggregates in cell culture media; format: physicochemical; details: MB higher than 5.5 mM (0.075%) applied to the media; persisted with T20
Experimental: Therefore, we aimed to identify an upper limit of MB concentration between 0.1 and 11 mM (0.001% and 0.15%) where the growth of HEK293 cells was less affected. Seven MB concentrations, 0, 0.1, 0.7, 3.7, 5.5, 7.0, 11 mM (0%, 0.001%, 0.01%, 0.05%, 0.075%, 0.1%, and 0.15%), were applied to HEK293 cells and the WST-1 experiment was performed. […] This might be because of the hydrophobicity of MB which causes it to form aggregates facilitated by the aqueous condition in the cell culture media. […] The WST-1 data were similar to the results without T20, except for 5.5 mM MB. […] We attributed the increased sensitivity of MB concentration 5.5 mM (0.075%) in the acetone-T20 solvent to the synergistic cytotoxic effect in the presence of the detergent, T20 with MB or the enhanced solubility of MB.

CCND1 (cyclin D1) = test: Real-time PCR, cyclin D1 mRNA expression in HEK293 cells; format: cell-based, human; details: HEK293, 48 h, VB 1.7 mM, ACTIN reference
Experimental: as §5
Further, we prompted to assess whether the gene expression of cell cycle and stress regulators such as cyclins and HSP70 is affected by MB, EB, and VB. These chemicals were applied to the HEK293 or SH-SY5Y cells at the concentrations of 4.4 mM [0.06% MB, 0.05% (3.7 mM) for SH-SY5Y cells], 1.7 mM (0.025%, EB), and 1.7 mM (0.025%, VB), respectively, for 48 h before extracting the total RNAs from the cells. The concentrations were chosen based on the LC50 values, approximately a third of the values, that would not cause cell death but could influence the gene expression in the tested cells. mRNAs of HSP70, CCNB1 (cyclin B1), and CCND1 (cyclin D1) were quantified by real-time PCR with ACTIN as a reference gene. […]

HSP70 [9] = test: Western blot, HSP70 protein level in HEK293 cells; format: cell-based, human; details: HEK293, VB 1.7 mM (250 ppm), α-Tubulin loading control
Experimental: HEK293 cells grown in 6 well plates for Western blots and SDS polyacrylamide gel electrophoresis (SDS-PAGE) were washed with cold PBS twice and scraped in RIPA buffer (Cell Signaling, Cat. 9806, USA). Protein concentration in each sample was measured through Bradford assay using Bio-Rad Protein Assay Dye Reagent Concentrate (Bio-Rad #5000006) and spectrophotometry at 595 nm (Tecan Sunrise™ Absorbance Microplate Reader, Switzerland). From the measured protein concentration, a total of 15 μg of proteins per each sample were loaded on 7% SDS-PA gels, blotted onto nitrocellulous membrane, and probed for HSP70 and α-Tubulin using corresponding antibody (HSP70, Santa Cruz sc-32239; α-Tubulin, Santa Cruz sc-8035) in Western blot assay.
Further, we prompted to assess whether the gene expression of cell cycle and stress regulators such as cyclins and HSP70 is affected by MB, EB, and VB. […] The concentrations were chosen based on the LC50 values, approximately a third of the values, that would not cause cell death but could influence the gene expression in the tested cells. mRNAs of HSP70, CCNB1 (cyclin B1), and CCND1 (cyclin D1) were quantified by real-time PCR with ACTIN as a reference gene. […]

[10] = log-probit on percentage mortality
[11] = log-probit on percentage mortality, read-out: LC50 (the source's name)

CCOC(=O)c1ccccc1 [EB, ethyl benzoate]
CC50 at 48 h [1]: 6.9 mM | LC50 (HEK293 cells; [10]): 0.104% | CC50 at 48 h [2]: 7.3 mM | LC50 (SH-SY5Y cells; [10]): 0.11% | cyclin B1 mRNA expression compared with solvent control (CCNB1 (cyclin B1)): rarely differentiated | HSP70 mRNA expression compared with solvent control (HSP70 [3]): decreased | mRNA expression of HSP70, CCNB1 and CCND1 [4]: did not display notable differential expressions | AChE mRNA expression [5]: hardly any change

COC(=O)c1ccccc1 [MB, Methyl benzoate]
CC50 at 48 h [1]: 13.2 mM | LC50 (HEK293 cells; [10]): 0.18% | CC50 at 48 h [6]: 20.6 mM | reduction in CACO2 cells in the WST-1 assay (CACO2 cells; CACO2, MB 3.7 mM (0.05%)): about 30% | reduction in CACO2 cells in the WST-1 assay (CACO2 cells; CACO2, MB 7.3 mM (0.1%)): > 90% | LC50 (CACO2 cells; CACO2, WST assay, log-probit on percentage mortality): 0.28% | CC50 at 48 h [2]: 11 mM | LC50 (SH-SY5Y cells; [10]): 0.15% | viability [7]: ≤ 0.05% | cyclin B1 mRNA expression compared with solvent control (CCNB1 (cyclin B1)): rarely differentiated | HSP70 mRNA expression compared with solvent control (HSP70 [3]): decreased | mRNA expression of HSP70, CCNB1 and CCND1 [4]: did not display notable differential expressions | AChE mRNA expression [5]: hardly any change | aggregate formation in cell culture media [8]: formed silver-colored aggregates

C=COC(=O)c1ccccc1 [VB, vinyl benzoate]
relative toxicity among MB, EB and VB (HEK293 cells): most toxic | LC50 (HEK293 cells; [10]): 0.08% | CC50 (HEK293 cells; [11]): 5.4 mM | relative toxicity among MB, EB and VB (SH-SY5Y cells): most toxic | LC50 (SH-SY5Y cells; [10]): 0.09% | CC50 (SH-SY5Y cells; [11]): 6.1 mM | cyclin B1 mRNA expression compared with solvent control (CCNB1 (cyclin B1)): rarely differentiated | cyclin D1 mRNA expression compared with solvent control (CCND1 (cyclin D1)): noticeable reduction | HSP70 mRNA expression compared with solvent control (HSP70 [3]): decreased | HSP70 protein level (HSP70 [9]): consistently decreased | mRNA expression of HSP70, CCNB1 and CCND1 [4]: did not display notable differential expressions | AChE mRNA expression [5]: mild increase
